Experiments:
Type in all cases: in vivo
Lolium rigidum (LOLRI) [1] = experiment: Herbicidal post-emergence action, LOLRI
Description: (§1) Seeds of mono- and dicotyledonous weed plants were sown in plastic pots (double sowings with one species of mono- and one species of dicotyledonous weed plants per pot), in sandy loam, covered with soil and grown under controlled growth conditions. 2 to 3 weeks after sowing, the test plants were sprayed in the single-leaf stage. The compounds according to the invention, formulated in the form of wettable powders (WP) or as emulsifiable concentrates (EC), were sprayed onto the green plant parts as an aqueous suspension or as an emulsion, with the addition of 0.5% of an additive, at an application rate of 600 litres of water per hectare (converted). The test plants were placed in the greenhouse for ca. 3 weeks under optimum growth conditions, and then the effect of the preparations is assessed visually in comparison with untreated controls (herbicidal effect in percent (%): 100% effect=plants have died, 0% effect=as control plants). […]

Kochia scoparia (KCHSC) = experiment: Herbicidal pre-emergence action, KCHSC
Description: (§2) Seeds of mono- and dicotyledonous weed plants were sown in plastic pots (double sowings with one species of mono- and one species of dicotyledonous weed plants per pot), in sandy loam, and covered with soil. The compounds according to the invention, formulated in the form of wettable powders (WP) or as emulsifiable concentrates (EC), were applied to the surface of the covering soil as an aqueous suspension or as an emulsion, with the addition of 0.5% of an additive, at an application rate of 600 litres of water per hectare (converted). Following treatment, the pots were placed in a greenhouse and kept under optimum growth conditions for the test plants. The visual grading of the damage to the test plants is carried out after ca. 3 weeks in comparison to untreated controls (herbicidal effect in percent (%): 100% effect=plants have died, 0% effect=as control plants). Seeds of mono- and dicotyledonous weed plants were sown in plastic pots (double sowings with one species of mono- and one species of dicotyledonous weed plants per pot), in sandy loam, and covered with soil. The compounds according to the invention, formulated in the form of wettable powders (WP) or as emulsifiable concentrates (EC), were applied to the surface of the covering soil as an aqueous suspension or as an emulsion, with the addition of 0.5% of an additive, at an application rate of 600 litres of water per hectare (converted). Following treatment, the pots were placed in a greenhouse and kept under optimum growth conditions for the test plants. The visual grading of the damage to the test plants is carried out after ca. 3 weeks in comparison to untreated controls (herbicidal effect in percent (%): 100% effect=plants have died, 0% effect=as control plants).

[2] = test system: Matricaria inodora (MATIN); experiment: Herbicidal pre-emergence action, MATIN
Description: as §2

Stellaria media (STEME) [3] = experiment: Herbicidal pre-emergence action, STEME
Description: as §2

Lolium rigidum (LOLRI) [4] = experiment: Herbicidal pre-emergence action, LOLRI
Description: as §2

[5] = test system: Matricaria inodora (MATIN); experiment: Herbicidal post-emergence action, MATIN
Description: as §1

Poa annua (POAAN) = experiment: Herbicidal post-emergence action, POAAN
Description: as §1

[6] = test system: Echinochloa crus-galli (ECHCG); experiment: Herbicidal post-emergence action, ECHCG
Description: as §1

[7] = test system: Abutilon theophrasti (ABUTH); experiment: Herbicidal pre-emergence action, ABUTH; conditions: 1280 g/ha, visual grading after ca. 3 weeks vs untreated controls (Table A1)
Description: Seeds of mono- and dicotyledonous weed plants were sown in plastic pots (double sowings with one species of mono- and one species of dicotyledonous weed plants per pot), in sandy loam, and covered with soil. The compounds according to the invention, formulated in the form of wettable powders (WP) or as emulsifiable concentrates (EC), were applied to the surface of the covering soil as an aqueous suspension or as an emulsion, with the addition of 0.5% of an additive, at an application rate of 600 litres of water per hectare (converted). Following treatment, the pots were placed in a greenhouse and kept under optimum growth conditions for the test plants. The visual grading of the damage to the test plants is carried out after ca. 3 weeks in comparison to untreated controls (herbicidal effect in percent (%): 100% effect=plants have died, 0% effect=as control plants).

Veronica persica (VERPE) = experiment: Herbicidal post-emergence action, VERPE
Description: as §1

[8] = test system: Amaranthus retroflexus (AMARE); experiment: Herbicidal pre-emergence action, AMARE
Description: as §2

Stellaria media (STEME) [9] = experiment: Herbicidal post-emergence action, STEME
Description: as §1

[10] = test system: Amaranthus retroflexus (AMARE); experiment: Herbicidal post-emergence action, AMARE
Description: as §1

[11] = 1280 g/ha, assessed visually after ca. 3 weeks vs untreated controls (Table B5)
[12] = 320 g/ha, visual grading after ca. 3 weeks vs untreated controls (Table C1)
[13] = 1280 g/ha, visual grading after ca. 3 weeks vs untreated controls (Table A4)
[14] = 320 g/ha, visual grading after ca. 3 weeks vs untreated controls (Table C3)
[15] = 1280 g/ha, visual grading after ca. 3 weeks vs untreated controls (Table A6)
[16] = 320 g/ha, visual grading after ca. 3 weeks vs untreated controls (Table C6)
[17] = 1280 g/ha, visual grading after ca. 3 weeks vs untreated controls (Table A9)
[18] = 320 g/ha, visual grading after ca. 3 weeks vs untreated controls (Table C2)
[19] = 1280 g/ha, visual grading after ca. 3 weeks vs untreated controls (Table A5)
[20] = 320 g/ha, assessed visually after ca. 3 weeks vs untreated controls (Table D2)
[21] = 1280 g/ha, assessed visually after ca. 3 weeks vs untreated controls (Table B6)
[22] = 320 g/ha, assessed visually after ca. 3 weeks vs untreated controls (Table D3)
[23] = 1280 g/ha, assessed visually after ca. 3 weeks vs untreated controls (Table B8)
[24] = 1280 g/ha, assessed visually after ca. 3 weeks vs untreated controls (Table B3)
[25] = 320 g/ha, assessed visually after ca. 3 weeks vs untreated controls (Table D5)
[26] = 1280 g/ha, assessed visually after ca. 3 weeks vs untreated controls (Table B10)
[27] = 320 g/ha, visual grading after ca. 3 weeks vs untreated controls (Table C8)
[28] = 1280 g/ha, visual grading after ca. 3 weeks vs untreated controls (Table A11)
[29] = 320 g/ha, assessed visually after ca. 3 weeks vs untreated controls (Table D4)
[30] = 1280 g/ha, assessed visually after ca. 3 weeks vs untreated controls (Table B9)
[31] = 320 g/ha, assessed visually after ca. 3 weeks vs untreated controls (Table D6)
[32] = 1280 g/ha, assessed visually after ca. 3 weeks vs untreated controls (Table B11)

SMILES | herbicidal effect in percent, LOLRI (Lolium rigidum (LOLRI) [1]; [11]) | herbicidal effect in percent, KCHSC (Kochia scoparia (KCHSC); [13]) | herbicidal effect in percent, MATIN [2, 14] | herbicidal effect in percent, MATIN [2, 15] | herbicidal effect in percent, STEME (Stellaria media (STEME) [3]; [16]) | herbicidal effect in percent, STEME (Stellaria media (STEME) [3]; [17]) | herbicidal effect in percent, LOLRI (Lolium rigidum (LOLRI) [4]; [19]) | herbicidal effect in percent, MATIN [5, 20] | herbicidal effect in percent, MATIN [5, 21] | herbicidal effect in percent, POAAN (Poa annua (POAAN); [22]) | herbicidal effect in percent, POAAN (Poa annua (POAAN); [23]) | herbicidal effect in percent, ECHCG [6, 24] | herbicidal effect in percent, ABUTH [7] | herbicidal effect in percent, VERPE (Veronica persica (VERPE); [25]) | herbicidal effect in percent, VERPE (Veronica persica (VERPE); [26]) | herbicidal effect in percent, AMARE [8, 28] | herbicidal effect in percent, STEME (Stellaria media (STEME) [9]; [29]) | herbicidal effect in percent, STEME (Stellaria media (STEME) [9]; [30]) | herbicidal effect in percent, AMARE [10, 31] | herbicidal effect in percent, AMARE [10, 32] | also measured
O=C(Nc1ncns1)c1c(C2CC2)ccnc1Cl [Example I-003, 2-chloro-4-cyclopropyl-N-(1,2,4-thiadiazol-5-yl)pyridine-3-carboxamide] | 90% | 100% | 100% | 100% | 100% | 100% | 90% | 90% | 100% | 90% | 100% | 90% | 90% | 90% | 100% | 100% | 100% | 100% | 100% | 100% | herbicidal effect in percent, KCHSC (Kochia scoparia (KCHSC); [12]): 90%; herbicidal effect in percent, LOLRI (Lolium rigidum (LOLRI) [4]; [18]): 90%; herbicidal effect in percent, AMARE [8, 27]: 90%
O=C(Nc1ncns1)c1c(C2CC2)ccnc1F [Example I-005] | 100% | 100% | 100% | 100% | 100% | 100% | 100% | 100% | 100% | 100% | 100% | 90% | 90% | 100% | 100% | 100% | 100% | 100% | 100% | 100% | herbicidal effect in percent, LOLRI (Lolium rigidum (LOLRI) [1]; 320 g/ha, assessed visually after ca. 3 weeks vs untreated controls (Table D9)): 100%; herbicidal effect in percent, KCHSC (Kochia scoparia (KCHSC); [12]): 100%; herbicidal effect in percent, LOLRI (Lolium rigidum (LOLRI) [4]; [18]): 100%; herbicidal effect in percent, AMARE [8, 27]: 100%
O=C(Nc1nc(Cl)ns1)c1c(C2CC2)ccnc1Cl [Example I-013] | 90% | 90% | 90% | 100% | 90% | 100% | 90% | 90% | 90% | 90% | 90% | 90% | 90% | 90% | 90% | 90% | 90% | 90% | 90% | 90% | herbicidal effect in percent, ECHCG ([6]; 320 g/ha, assessed visually after ca. 3 weeks vs untreated controls (Table D7)): 90%
